Source: article PMC3256212, “Mechanism and Function of Drosophila capa GPCR: A Desiccation Stress-Responsive Receptor with Functional Homology to Human NeuromedinU Receptor” (PLoS ONE, 2012)
Ends that are not written are not given here.

T1: capaR (CG14575) (Drosophila melanogaster, UniProt Q8ITC7)
T1 construct: The ORF of capaR was amplified from whole fly cDNA as template; expressed in transfected cells; host or cells: Drosophila S2 cells (pMT/V5-His TOPO, CuSO4 induction)
T1 sequence (Q8ITC7 1-477): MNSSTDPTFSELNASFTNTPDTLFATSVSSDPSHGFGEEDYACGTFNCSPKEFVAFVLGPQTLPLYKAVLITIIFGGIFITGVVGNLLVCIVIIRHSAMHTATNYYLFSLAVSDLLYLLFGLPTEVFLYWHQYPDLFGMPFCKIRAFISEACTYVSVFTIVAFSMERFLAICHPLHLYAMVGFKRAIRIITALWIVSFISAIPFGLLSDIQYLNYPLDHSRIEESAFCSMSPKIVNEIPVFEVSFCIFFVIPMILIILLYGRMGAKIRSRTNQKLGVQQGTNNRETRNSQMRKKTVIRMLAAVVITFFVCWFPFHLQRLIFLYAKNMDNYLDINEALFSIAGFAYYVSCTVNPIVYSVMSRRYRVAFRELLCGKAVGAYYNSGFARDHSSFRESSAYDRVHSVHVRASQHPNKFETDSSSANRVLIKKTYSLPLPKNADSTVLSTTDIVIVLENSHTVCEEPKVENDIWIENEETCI

T2: capa receptor (capaR, CG14575) expressed in S2 cells (D. melanogaster) (UniProt Q8ITC7)
T2 sequence: T1 sequence (Q8ITC7 1-477)


Key:
phospholipase C (PLC) = test: PLC inhibition: capa-1-induced [Ca2+]i response in S2-capaR cells; format: cell-based, Drosophila; conditions: Fig. 1D
Protocol: (§1) Drosophila S2 cells, cultured under standard conditions were transiently transfected with the apoaequorin ORF [21] and a receptor ORF construct, and expression induced using CuSO4. Transfected S2 cells were harvested and incubated with 2.5 µM coelenterazine in the dark at RT for 1–2 h as previously described. 25,000 cells were then placed in 135 µl Schneider's medium supplemented with 10% FCS in a well of a white polystyrene 96-well plate (Berthold Technologies). Bioluminescence recordings were carried out using a Mithras LB940 automated 96-well plate reader (Berthold Technologies) and MikroWin software. 15 µl of each of different peptides were applied to final concentrations as required. At the end of each recording samples were disrupted by the addition of 100 µl lysis solution, and the [Ca^2+] concentrations calculated as previously described. For assays in Ca^2+-free medium, transfected cells were collected and pelleted after incubation with coelenterazine. Cell pellets were re-suspended in Ca^2+-free Schneider's medium (Invitrogen Inc.) without FCS and collected by centrifugation. The washing and pelleting procedure was repeated once more. Experiments were then carried out on 25,000 cells per sample as above. […]

capaR (CG14575) = biological target: T1, capaR (CG14575); test: [Ca2+]i (aequorin) in capaR-transfected S2 cells; format: cell-based; conditions: for EC50: S2 cells expressing capaR and apoaequorin, maximal - background, mean ± S.E.M., N = 6 (Fig. 1C), read-out: EC50 for stimulated [Ca2+]i responses via capaR; for effect on [Ca2+]i via capaR: 10^−7 M, S2 cells (Fig. 3A)
Text: The ORF of capaR was amplified from whole fly cDNA as template using the primers 5′-[…]-3′ and 5′-[…]-3′ and cloned into pMT/V5-His TOPO vector (Invitrogen). The eYFP ORF was fused in-frame at the C-terminus of the capaR using KpnI and ApaI sites and the tagged construct was cloned into the pMT/V5-His TOPO vector.
(§2) The capa peptides Drm-capa-1 (GANMGLYAFPRVamide), Drm-capa-2 (ASGLVAFPRVamide), Drm-PK-1 (TGPSASSGLWFGPRLamide), Drm-PK-2 (SVPFKPRLamide) and hugin gamma (hugg, pQLQSNGEPAYRVRTPRL-amide) were synthesised as C-terminally amidated peptides (Biomatik Corporation, Canada). Peptides were dissolved in distilled ACN/H2O to a concentration of 1 mM and then diluted to the required working concentration in Schneider's medium (Invitrogen Inc.). Human neuromedin U-25 was purchased from Sigma. Rabbit polyclonal antibody to porcine neuromedinU-8 was purchased from Progen biotechnik (Heidelberg, Germany). Rabbit capa precursor peptide used was described in [21] Rabbit anti-peptide antibody was raised against the capaR epitope (CQQGTNNRETRNSQM) by Genosphere Biotechnologies (Paris, France) and purified on a HiTrap NHS-activated HP column (Amersham Pharmacia Bio-tech; Buckinghamshire, UK) according to the manufacturer's instructions. Immunohistochemistry was carried out as described previously. Mouse anti-GFP primary antibody (Zymed) and the antiserum to neuromedinU-8 were all diluted 1∶1000 or, in the case of the pre-immune serum, the affinity-purified capaR antibody and the antiserum to the capa precursor peptide, 1∶500. Incubations in the primary antibodies were performed overnight. A FITC-conjugated affinity-purified goat anti-mouse antibody (Jackson Immunologicals) was used in a dilution of 1∶1,000 for visualization of the mouse monoclonal anti-GFP. A Texas red-conjugated affinity-purified goat anti-rabbit antibody (Jackson Immunologicals) was used at a dilution of 1∶1,000 for visualization of the rabbit capaR antiserum.
Drosophila S2 cells, cultured under standard conditions were transiently transfected with the apoaequorin ORF [21] and a receptor ORF construct, and expression induced using CuSO4. Transfected S2 cells were harvested and incubated with 2.5 µM coelenterazine in the dark at RT for 1–2 h as previously described. 25,000 cells were then placed in 135 µl Schneider's medium supplemented with 10% FCS in a well of a white polystyrene 96-well plate (Berthold Technologies). Bioluminescence recordings were carried out using a Mithras LB940 automated 96-well plate reader (Berthold Technologies) and MikroWin software. 15 µl of each of different peptides were applied to final concentrations as required. At the end of each recording samples were disrupted by the addition of 100 µl lysis solution, and the [Ca^2+] concentrations calculated as previously described. For assays in Ca^2+-free medium, transfected cells were collected and pelleted after incubation with coelenterazine. Cell pellets were re-suspended in Ca^2+-free Schneider's medium (Invitrogen Inc.) without FCS and collected by centrifugation. The washing and pelleting procedure was repeated once more. Experiments were then carried out on 25,000 cells per sample as above. To verify whether the observed calcium signal was linked to phospholipase C (PLC) activation, S2-capaR cells were preincubated with the PLC inhibitor U73122 at concentration of 10^−3 M to 10^−8 M for 10 min. Luminometry experiments were carried out on live, intact tubules expressing a targeted transgene for cytosolic-targeted apoaequorin in either principal or stellate cells as previously described, [22]. For in vivo tubule experiments, flies of the following genotypes were used: c42aeq, capaR-GAL4, UAS-capaR, UAS-capaR RNAi, UAS-NMUR 2 and the resulting progeny from GAL4>UAS crosses.

NMR 1 = test system: NMR 1; design: method as in earlier work; conditions: CHO cells; ref 39 (Fujii et al.); cited from earlier work
NMU receptor 2 (NMUR 2) = biological target: T3, NMU receptor 2 (NMUR 2) (Homo sapiens, UniProt Q9GZQ4); test: [Ca2+]i (aequorin) in NMUR 2-transfected S2 cells; format: cell-based; conditions: 10^−7 M, S2 cells (Fig. 3B)
T3 construct: expressed in transfected cells; host or cells: Drosophila S2 cells (pMT/V5-His TOPO)
Protocol: as §2
as §1, with “more.” for “more. Experiments were then carried out on 25,000 cells per sample as above.”

CG8795 (hugin receptor) = test: [Ca2+]i (aequorin) in CG8795-transfected S2 cells; format: cell-based, Drosophila; conditions: 10^−7 M, S2 cells (Fig. 3C)
Protocol: as §2, with “A Texas red-conjugated affinity-purified goat anti-rabbit antibody (Jackson Immunologicals) was used at a dilution of 1∶1,000 for visualization of the rabbit capaR antiserum.” left out
Drosophila S2 cells, cultured under standard conditions were transiently transfected with the apoaequorin ORF [21] and a receptor ORF construct, and expression induced using CuSO4. […] Bioluminescence recordings were carried out using a Mithras LB940 automated 96-well plate reader (Berthold Technologies) and MikroWin software. […] At the end of each recording samples were disrupted by the addition of 100 µl lysis solution, and the [Ca^2+] concentrations calculated as previously described. […]

Malpighian tubule = test: Fluid transport by wild-type Malpighian tubules; design: species or system Drosophila melanogaster; conditions: 10^−7 M; mean ± SEM, N = 6–10, Student's t-test P<0.05 (Fig. 4A)
Protocol: Fluid transport assays were carried out as previously described using live, intact tubules dissected from 7-day-old adults with the following genotypes: wild-type Canton-S, c42-GAL4>UAS-capaR RNAi, actin-GAL4>UAS-NMUR 2. Fluid droplets were collected every 10 min, and the volumes of fluid were calculated. Basal rates of fluid secretion were monitored for 30 min, whereupon peptide was added, and the secretion rate was then recorded for a further 30 min.

[1] = biological target: T2, capa receptor (capaR, CG14575) expressed in S2 cells (D. melanogaster)
[2] = biological target: human neuromedin U receptor 2 (human) (UniProt Q9GZQ4)
[3] = biological target: T2, capa receptor (capaR, CG14575) expressed in S2 cells (D. melanogaster); remark: listed apart in the source

T3 sequence (Q9GZQ4 whole entry): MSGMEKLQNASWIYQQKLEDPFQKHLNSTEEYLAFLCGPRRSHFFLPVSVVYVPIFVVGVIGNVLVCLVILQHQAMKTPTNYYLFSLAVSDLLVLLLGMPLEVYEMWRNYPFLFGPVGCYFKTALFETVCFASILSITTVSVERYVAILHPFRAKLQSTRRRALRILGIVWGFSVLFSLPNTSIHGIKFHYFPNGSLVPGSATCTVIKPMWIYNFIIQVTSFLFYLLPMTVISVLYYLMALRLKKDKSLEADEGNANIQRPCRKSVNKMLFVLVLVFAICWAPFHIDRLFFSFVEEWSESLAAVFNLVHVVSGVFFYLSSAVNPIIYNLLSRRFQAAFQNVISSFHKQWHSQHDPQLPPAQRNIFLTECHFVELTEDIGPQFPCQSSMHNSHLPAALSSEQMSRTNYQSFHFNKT
human neuromedin U receptor 2 (human), sequence (Q9GZQ4 whole entry): as above

Molecule	effect on [Ca2+]i via capaR (capaR (CG14575))	effect on [Ca2+]i via NMUR 2 (NMU receptor 2 (NMUR 2))	effect on [Ca2+]i via CG8795 (CG8795 (hugin receptor))	fluid transport by wild-type tubules (Malpighian tubule)	also measured
COc1ccc2c(c1)CC[C@@H]1[C@@H]2CC[C@]2(C)[C@@H](NCCCCCCN3C(=O)C=CC3=O)CC[C@@H]12 [U73122]	–	–	–	–	inhibition of capa-1-induced [Ca2+]i response (phospholipase C (PLC)): inhibited by the widely-used PLC inhibitor (U73122) in a dose-dependent manner
CSCC[C@H](NC(=O)[C@H](CC(N)=O)NC(=O)[C@H](C)NC(=O)CN)C(=O)NCC(=O)N[C@@H](CC(C)C)C(=O)N[C@@H](Cc1ccc(O)cc1)C(=O)N[C@@H](C)C(=O)N[C@@H](Cc1ccccc1)C(=O)N1CCC[C@H]1C(=O)N[C@@H](CCCNC(=N)N)C(=O)N[C@H](C(N)=O)C(C)C [capa-1]	–	–	–	–	EC50 (capaR (CG14575)): 3.06 nM
CC(C)C[C@H](NC(=O)CNC(=O)[C@H](CO)NC(=O)[C@H](C)N)C(=O)N[C@H](C(=O)N[C@@H](C)C(=O)N[C@@H](Cc1ccccc1)C(=O)N1CCC[C@H]1C(=O)N[C@@H](CCCNC(=N)N)C(=O)N[C@H](C(N)=O)C(C)C)C(C)C [capa-2]	–	–	–	–	EC50 (capaR (CG14575)): 4.32 nM
MNYLAFPRM-NH2 [SCPB]	–	–	–	–	agonistic activity to NMR 1 (NMR 1): significant agonistic activity
SVPFKPRL-NH2 [Drm-PK-2, Drosophila pyrokinin, SVPFKPRLamide]	do not have effects on either capaR	do not have effects on either capaR (Fig. 3A) or NMUR 2	stimulates increased [Ca^2+]i levels	not with Drm-PK-1, hugg, Drm-PK-2	–
TGPSASSGLWFGPRL-NH2 [Drm-PK-1, Drosophila pyrokinin, …amide]	do not have effects on either capaR	do not have effects on either capaR (Fig. 3A) or NMUR 2	stimulates increased [Ca^2+]i levels	not with Drm-PK-1, hugg, Drm-PK-2	–
pQLQSNGEPAYRVRTPRL-amide [hugg, hugin gamma, p…-amide]	but not hugg nor Drm-PK-2, increases intracellular calcium ([Ca^2+]i) levels via capaR	increases [Ca^2+]i via NMUR 2 but to a reduced level compared to capa-1	stimulates increased [Ca^2+]i levels	not with Drm-PK-1, hugg, Drm-PK-2	–
FRVDEEFQSPFASQSRGYFLFRPRN-NH2 [Human neuromedin U-25]	–	–	–	–	[Ca2+]i, dose-response to NMU-25; first of two values given 'respectively', probably capaR- and apoaequorin-co-transfected S2 cells [1]: 21.8 nM; [Ca2+]i, dose-response to NMU-25; second of two values given 'respectively', probably intact tubules expressing apoaequorin in principal cells (endogenous capaR) [1]: 27.1 nM; [Ca2+]i in S2 cells expressing NMUR 2 and apoaequorin, dose-response to NMU-25 [2]: 0.91 nM
ASGLVAFPRV-NH2 [Drm-capa-2]	–	–	–	–	[Ca2+]i (aequorin luminescence) in S2 cells expressing capaR and apoaequorin, dose-response to capa-2 [3]: 4.32 nM
GANMGLYAFPRV-NH2 [Drm-capa-1]	–	–	–	–	[Ca2+]i (aequorin luminescence) in S2 cells expressing capaR and apoaequorin, dose-response to capa-1 [3]: 3.06 nM
